{"source": "patent US9549941B2", "about": "“Compositions and methods for treating hepatitis C virus” (priority 2011, dated 2017)", "key": {"[1]": {"tested_on": "1b con-1-based chimeric replicon containing 4a NS5B S282T", "assay_type": "cell-based, hepatitis C virus", "conditions": "genotype 4a, S282T from corresponding wild-type", "protocol": "(§1) (Lam et al., J. Virology (2011) 85(23): 12334-12342; Lam et al., Antimicrob. Agents Chemother. (2012) 56(6): 3359-3368.) S282T mutations in NS5B were created by site-directed mutagenesis in 1a-H77, 1b con-1, and 2a JFH1 sub-genomic replicons. 1b con-1-based chimeric replicons containing 2b, 3a, 4a, 5a, or 6a NS5B were also engineered to harbor the S282T mutation. […] Relative percentages of mutant and WT were assessed by deep sequencing."}, "[2]": {"tested_on": "2a JFH1 sub-genomic replicon, NS5B S282T", "assay_type": "cell-based, hepatitis C virus", "conditions": "genotype 2a, S282T from corresponding wild-type", "protocol": "as §1"}, "[3]": {"tested_on": "1b con-1 sub-genomic replicon, NS5B S282T", "assay_type": "cell-based, hepatitis C virus", "conditions": "genotype 1b, S282T from corresponding wild-type", "protocol": "as §1"}, "[4]": {"tested_on": "1b con-1-based chimeric replicon containing 5a NS5B S282T", "assay_type": "cell-based, hepatitis C virus", "conditions": "genotype 5a, S282T from corresponding wild-type", "protocol": "as §1"}, "[5]": {"tested_on": "1b con-1-based chimeric replicon containing 3a NS5B S282T", "assay_type": "cell-based, hepatitis C virus", "conditions": "genotype 3a, S282T from corresponding wild-type", "protocol": "as §1"}, "[6]": {"assay": "ELECTRON adverse events (Groups 1,7,8,9 N=70; Groups 2,3,4 N=30; Group 5 N=10; Group 6 N=10)", "assay_type": "in vivo, human", "conditions": "subjects with event"}}}
{"compound": "CC(C)OC(=O)[C@H](C)N[P@](=O)(OC[C@H]1O[C@@H](n2ccc(=O)[nH]c2=O)[C@](C)(F)[C@@H]1O)Oc1ccccc1", "note": "[GS-7977, (S)-isopropyl 2-(((S)-(((2R,3R,4R,5R)-5-(2,4-dioxo-3,4-dihydropyrimidin-1(2H)-yl)-4-fluoro-3-hydroxy-4-methyltetrahydrofuran-2-yl)methoxy)(phenoxy)phosphoryl)amino)propanoate]", "values": [{"measurement": "Fold Change", "setting": "[1]", "result": 6.1}, {"measurement": "Fold Change", "setting": "[2]", "result": 2.4}, {"measurement": "Fold Change", "setting": "[3]", "result": 8.8}, {"measurement": "Fold Change", "setting": "[4]", "result": 14.35}, {"measurement": "Fold Change", "setting": "[5]", "result": 3.5}, {"measurement": "Abdominl Pain: n", "setting": "[6]", "result": 0}, {"measurement": "Alopecia: n", "setting": "[6]", "result": 0}, {"measurement": "Anemia: n", "setting": "[6]", "result": 0}, {"measurement": "Arthralgia: n", "setting": "[6]", "result": 0}, {"measurement": "Axillary Pain: %", "setting": "[6]", "result": "(20) %"}, {"measurement": "Axillary Pain: n", "setting": "[6]", "result": 2}, {"measurement": "Back Pain: %", "setting": "[6]", "result": "(10) %"}, {"measurement": "Back Pain: n", "setting": "[6]", "result": 1}, {"measurement": "Blood and Lymphatic System Disorders: n", "setting": "[6]", "result": 0}, {"measurement": "Chills: n", "setting": "[6]", "result": 0}, {"measurement": "Decreased Appetite: n", "setting": "[6]", "result": 0}, {"measurement": "Diarrhoea: n", "setting": "[6]", "result": 0}, {"measurement": "Dizziness Postural: n", "setting": "[6]", "result": 0}, {"measurement": "Dizziness: %", "setting": "[6]", "result": "(20) %"}, {"measurement": "Dizziness: n", "setting": "[6]", "result": 2}, {"measurement": "Dry Skin: n", "setting": "[6]", "result": 0}, {"measurement": "Dyspnoea: n", "setting": "[6]", "result": 0}, {"measurement": "Fatigue: %", "setting": "[6]", "result": "(30) %"}, {"measurement": "Fatigue: n", "setting": "[6]", "result": 3}, {"measurement": "Flatulence: n", "setting": "[6]", "result": 0}, {"measurement": "Gastrointestinal Disorders: %", "setting": "[6]", "result": "(80) %"}, {"measurement": "Gastrointestinal Disorders: n", "setting": "[6]", "result": 8}, {"measurement": "General Disorders and Administration Site Conditions: %", "setting": "[6]", "result": "(80) %"}, {"measurement": "General Disorders and Administration Site Conditions: n", "setting": "[6]", "result": 8}, {"measurement": "Headache: %", "setting": "[6]", "result": "(80) %"}, {"measurement": "Headache: n", "setting": "[6]", "result": 8}, {"measurement": "Infections and Infestations: %", "setting": "[6]", "result": "(50) %"}, {"measurement": "Infections and Infestations: n", "setting": "[6]", "result": 5}, {"measurement": "Injection Site Erythema: n", "setting": "[6]", "result": 0}, {"measurement": "Insomnia: %", "setting": "[6]", "result": "(60) %"}, {"measurement": "Insomnia: n", "setting": "[6]", "result": 6}, {"measurement": "Irritability: %", "setting": "[6]", "result": "(10) %"}, {"measurement": "Irritability: n", "setting": "[6]", "result": 1}, {"measurement": "Metabolism and Nutrition Disorders: n", "setting": "[6]", "result": 0}, {"measurement": "Musculoskeletal and Connective Tissue Disorders: %", "setting": "[6]", "result": "(20) %"}, {"measurement": "Musculoskeletal and Connective Tissue Disorders: n", "setting": "[6]", "result": 2}, {"measurement": "Myalgia: %", "setting": "[6]", "result": "(10) %"}, {"measurement": "Myalgia: n", "setting": "[6]", "result": 1}, {"measurement": "Nausea: %", "setting": "[6]", "result": "(30) %"}, {"measurement": "Nausea: n", "setting": "[6]", "result": 3}, {"measurement": "Nervous System Disorders: %", "setting": "[6]", "result": "(90) %"}, {"measurement": "Nervous System Disorders: n", "setting": "[6]", "result": 9}, {"measurement": "Oropharyngeal Pain: %", "setting": "[6]", "result": "(20) %"}, {"measurement": "Oropharyngeal Pain: n", "setting": "[6]", "result": 2}, {"measurement": "Pain: n", "setting": "[6]", "result": 0}, {"measurement": "Pruritus: n", "setting": "[6]", "result": 0}, {"measurement": "Psychiatric Disorders: %", "setting": "[6]", "result": "(60) %"}, {"measurement": "Psychiatric Disorders: n", "setting": "[6]", "result": 6}, {"measurement": "Pyrexia: n", "setting": "[6]", "result": 0}, {"measurement": "Rash: %", "setting": "[6]", "result": "(10) %"}, {"measurement": "Rash: n", "setting": "[6]", "result": 1}, {"measurement": "Respiratory, Thoracic and Mediastinal Disorders: %", "setting": "[6]", "result": "(30) %"}, {"measurement": "Respiratory, Thoracic and Mediastinal Disorders: n", "setting": "[6]", "result": 3}, {"measurement": "Skin and Subcutaneous Tissue Disorders: %", "setting": "[6]", "result": "(30) %"}, {"measurement": "Skin and Subcutaneous Tissue Disorders: n", "setting": "[6]", "result": 3}, {"measurement": "Upper Respiratory Tract Infection: %", "setting": "[6]", "result": "(20) %"}, {"measurement": "Upper Respiratory Tract Infection: n", "setting": "[6]", "result": 2}, {"measurement": "≧1 AE: %", "setting": "[6]", "result": "(100) %"}, {"measurement": "≧1 AE: n", "setting": "[6]", "result": 10}]}
